Assay results published in patent US5141865A, “Monoclonal antibodies which bind thromboxane A2 receptor antagonists and diagnostic methods based thereon” (priority 1989, dated 1992).

Test system: monoclonal antibody MCTX1
Test: Competitive radioimmunoassay (RIA) with MCTX1 and radiolabel-1; standard curve and cross-reactivity
Type: binding, mouse
Details: for percent cross-reactivity with MCTX1: ED50 of cross-reactant relative to ED50 of Compound I x 100, standards and cross-reactants in PBS
Description: Sera from immunized mice and media collected from wells containing HAT selected hybridomas were tested for the presence of antibodies recognizing Compound I by RIA. Undiluted media (50 μl) was incubated overnight at 4° C. with PBS (50 μl), normal human sera (50 μl) and [^125 I]-iodohistamine - Compound I (radiolabel-1) in PBS (200 μl, 50,000 CPM). After incubation, 1.0 ml of PEG 8000 (Fisher Scientific, Fairlawn, N.J.) (25% wt/vol) was added as separant; samples were centrigued at room temperature at 2000×g for 10 to 15 minutes and the supernatant decanted. Radioactivity associated with the precipitate was then determined using an APEX automatic gamma counter (ICN Micromedic Systems). Satisfactory zero binding and sensitivity were obtained after an overnight incubation at 4° C.
In order to assay samples for thromboxane A2 receptor antagonist, the same procedure was used, except that 50 μl of sample was used in place of the 50 μl of PBS.
In this regard, for construction of the standard curve and determination of cross-reactivity, standards and cross-reactants were prepared in PBS. Three cross-reactants were examined: the dinor and tetranor, possible metabolites of Compound I, and a related compound, Compound II, which lacks most of the omega side chain (Table 2).
To further characterize the specific structural features (epitope) within Compound I that are recognized by MCTX1, various derivatives of Compound I were tested for their cross-reactivity. The percent cross-reactivity was determined by dividing the ED50 of Compound I into the ED50 of the cross-reactants and multiplying the result by 100. […] Two potential metabolites of Compound I, the dinor and tetranor derivatives, had cross-reactivities of 66% and 17.6%, respectively. Both of these compounds have shortened alpha-side chains and no modifications in their omega-side chain. The extent of cross-reactivityof both alpha-side chain metabolites became less as the alpha-side chain became more truncated. […]

Structure (SMILES) | percent cross-reactivity with MCTX1 [%] | recognition by MCTX1 (cross-reactivity test) (cross-reactant prepared in PBS)
CCCCCCC(=O)NCC(=O)NC[C@H]1[C@@H](CCC(=O)O)[C@@H]2CC[C@H]1O2 [tetranor] | 17.6 | –
CCCCCCC(=O)NCC(=O)NCC1C2CCC(O2)C1CC=CCC(=O)O (stereo not drawn) [dinor] | 66 | –
COC(=O)CCC=CCC1C2CCC(O2)C1CN (stereo not drawn) [Compound II] | – | not recognized by MCTX1
